Legend:
Myzus persicae = assay: EPG monitoring of aphid probing and feeding (no-choice test); assay type: in vivo; conditions: 8-h EPG; for Mean duration of probing (C + G + E) / Number of probes / Total duration of pathway (C) / Total duration of phloem phase (E) / Total duration of probing (C + G + E): 0.1% solution, n = 12; for Mean duration of probing (C + G + E) / Number of probes / Total duration of pathway (C) / Total duration of phloem phase (E) / Total duration of probing (C + G + E) / Number of probes before first phloem phase / Time from first probe to first phloem phase / Duration of first phloem phase / Total duration of phloem salivation E1 / Total duration of phloem sap ingestion E2 / Number of probes < 3 min: mean ± SE; for Number of probes before first phloem phase / Time from first probe to first phloem phase: activities in non-phloem tissues; for Number of probes before first phloem phase / Time from first probe to first phloem phase / Duration of first phloem phase / Total duration of phloem salivation E1 / Total duration of phloem sap ingestion E2 / Number of probes < 3 min: n = 10-12; for Duration of first phloem phase / Total duration of phloem salivation E1 / Total duration of phloem sap ingestion E2: activities in sieve elements; for Number of probes < 3 min: before first phloem phase; for Proportion of salivation in phloem phase: (duration of E1 / duration of E1 + E2)*100; for Proportion of phloem phase in total probing: index = duration of phloem phase E / duration of probing C + G + E
Description: The peach potato aphids Myzus persicae (Sulzer) and the Chinese cabbage Brassica rapa subsp. pekinensis (Lour.) Hanelt were reared in laboratory at 20 °C, 65% r.h., and L16:8D photoperiod. One to seven days old apterous females of M. persicae and 3-week old plants with 4–5 fully developed leaves were used for experiments. M. persicae were obtained from the laboratory culture maintained at the Department of Botany and Ecology for many generations since 2000. All experiments were carried out under the same conditions of temperature, relative humidity, and photoperiod. The bioassays were started at 10–11.a.m. Each compound was dissolved in 70% ethanol to obtain the recommended 0.1% solution[40]. All compounds were applied on the adaxial and abaxial leaf surfaces by immersing a leaf in the ethanolic solution of a given compound for 30 s.[20]. Control leaves of similar size were immersed in 70% ethanol that was used as a solvent for the studied compounds. Experiments were performed 1 h after the compounds application to allow the evaporation of the solvent. Every plant and aphid were used only once.
Aphid probing and the phloem sap uptake by M. persicae was monitored using the technique of electronic registration of aphid probing in plant tissues, known as EPG (= Electrical Penetration Graph), that is frequently employed in insect–plant relationship studies considering insects with sucking-piercing mouthparts[42]–[44]. In this experimental set-up, aphid and plant are connected to electrodes and thus made parts of an electric circuit, which is completed when the aphid inserts its stylets into the plant. Weak voltage is supplied in the circuit, and all changing electric properties are recorded as EPG waveforms that can be correlated with aphid activities and stylet position in plant tissues[45],[46]. The parameters describing aphid behaviour during probing and feeding, such as total time of probing, proportion of phloem patterns E1 and E2, number of probes, etc., are good indicators of plant suitability or interference of probing by chemical or physical factors in individual plant tissues[44]–[46]. In the present study, aphids were attached to a golden wire electrode with conductive silver paint (epgsystems. eu) and starved for 1 h prior to the experiment. Probing behaviour of 12 apterous females/studied compound and control was monitored for 8 h continuously with Giga-4 and Giga-8 DC EPG with 1 GΩ of input resistance recording equipment (EPG Systems, Wageningen, The Netherlands). Each aphid was given access to a freshly prepared plant and each aphid/plant combination was used only once. Various behavioural phases were labelled manually using the Stylet + software (www.epgsystems.eu). The following aphid behaviours were distinguished: no penetration (waveform 'np' – aphid stylets outside the plant), pathway phase—penetration of non-phloem tissues (waveforms 'ABC'), phloem phase (salivation into sieve elements, waveform ‘E1’ and ingestion of phloem sap, waveform ‘E2’), and xylem phase (ingestion of xylem sap, waveform 'G'). Waveform ‘G’ occurred rarely irrespective of the treatment. Therefore, in all calculations the xylem phase was added to the pathway phase and termed as probing in non-phloem tissues. The E1/E2 transition patterns were included in E2. Waveform patterns that were not terminated before the end of the experimental period (8 h) were not excluded from the calculations. The parameters derived from EPG recordings were analyzed according to their frequency and duration in configuration related to activities in peripheral and vascular tissues.
All statistical calculations related to data of the no-choice test were performed using StatSoft, Inc. (2014) STATISTICA (data analysis software system), version 12, www.statsoft.com. […]

MV4-11 cells = assay: Antiproliferative activity, MTT assay; assay type: cell-based, human; conditions: for IC50: 72 h exposure, MTT, mean ± SD, n.a = no activity in concentration of 5, 25, 125, 625 μM; for Selectivity index SI, MV4-11: SI = IC50 BALB/3T3 / IC50 MV4-11
Description: Human biphenotypic B myelomonocytic leukemia MV4-11, human colon cancer LoVo cell line and normal mouse fibroblast BALB/3T3 cells were obtained from American Type Culture Collection (Rockville, Maryland, USA), human lung carcinoma A549 cells were obtained from European Collection of Authenticated Cell Cultures (UK). All the cell lines are being maintained at the Hirszfeld Institute of Immunology and Experimental Therapy, PAS, Wroclaw, Poland and were cultured according the procedure described before.
Cell lines were cultured according to the protocol described before. MV4-11 cells were cultured in RPMI 1640 medium (Gibco, UK) with 1.0 mM sodium pyruvate, and 10% fetal bovine serum (FBS) (all from Sigma-Aldrich, Germany). A549, LoVo and LoVo/DX cells were cultured in RPMI 1640 + Opti-MEM (1:1) (both from Gibco, UK) supplemented with 5% fetal bovine serum, 1.0 mM sodium pyruvate (LoVo and LoVo/DX cells) (all from Sigma Aldrich Germany) and 0.1 μg/mL doxorubicin chloride (Accord) (only LoVo/DX cells). BALB/3T3 cells in Dulbecco medium (IIET, Poland) supplemented with 10% fetal bovine serum (Sigma-Aldrich, Germany). All culture media were supplemented with 2 mM L-glutamine (Sigma-Aldrich, Germany), 100 units/mL penicillin, and 100 µg/mL streptomycin (both from Polfa Tarchomin S.A., Poland). All cell lines were grown at 37 °C with 5% CO2 humidified atmosphere.
The solutions of the compounds (50 mM) were prepared by dissolving the substances in DMSO (Sigma Aldrich, Germany). Then the tested compounds were diluted in culture medium to reach the final concentrations of 625, 125, 25 and 5 μM. Before adding of the tested compounds (24 h prior), the cells were plated in 96-well plates (Sarstedt, Germany) at a density of 1 × 10^4 or 0.5 × 10^4 (A549) cells per well. The assay was performed after 72 h of exposure to 625, 125, 25 and 5 μM of the tested agents. The in vitro cytotoxic effect of all agents was examined using the MTT (MV4-11) or SRB assay, described previously. The results were calculated as an IC50 (inhibitory concentration 50%) the concentration of tested agent, which is cytotoxic for 50% of the cancer cells. Each compound in each concentration was tested in triplicate in a single experiment, which was repeated 3–5 times.

LoVo/DX cells = assay: Antiproliferative activity, SRB assay, doxorubicin resistant subline; assay type: cell-based, human; conditions: for IC50: 72 h exposure, SRB, mean ± SD, n.a = no activity in concentration of 5, 25, 125, 625 μM; for Selectivity index SI, LoVo/DX: SI = IC50 BALB/3T3 / IC50 LoVo/DX
Description: Cell lines were cultured according to the protocol described before. […] All culture media were supplemented with 2 mM L-glutamine (Sigma-Aldrich, Germany), 100 units/mL penicillin, and 100 µg/mL streptomycin (both from Polfa Tarchomin S.A., Poland). All cell lines were grown at 37 °C with 5% CO2 humidified atmosphere. The solutions of the compounds (50 mM) were prepared by dissolving the substances in DMSO (Sigma Aldrich, Germany). […] The in vitro cytotoxic effect of all agents was examined using the MTT (MV4-11) or SRB assay, described previously. […] Each compound in each concentration was tested in triplicate in a single experiment, which was repeated 3–5 times.

| Molecule | Mean duration of probing (C + G + E) (Myzus persicae) | Number of probes (Myzus persicae) | Total duration of pathway (C) (Myzus persicae) | Total duration of phloem phase (E) (Myzus persicae) | Total duration of probing (C + G + E) (Myzus persicae) | Number of probes before first phloem phase (Myzus persicae) | Time from first probe to first phloem phase (Myzus persicae) | Duration of first phloem phase (Myzus persicae) | Total duration of phloem salivation E1 (Myzus persicae) | Total duration of phloem sap ingestion E2 (Myzus persicae) | Number of probes < 3 min (Myzus persicae) | Proportion of salivation in phloem phase (Myzus persicae) | Proportion of phloem phase in total probing (Myzus persicae) | IC50 (MV4-11 cells; Homo sapiens, MV4-11) | IC50 (LoVo/DX cells; Homo sapiens, LoVo/DX) | Selectivity index SI, MV4-11 (MV4-11 cells) | Selectivity index SI, LoVo/DX (LoVo/DX cells) | further results |
| --- | --- | --- | --- | --- | --- | --- | --- | --- | --- | --- | --- | --- | --- | --- | --- | --- | --- | --- |
| CC(C)CCCC(C)CCCC(C)CCC[C@]1(C)CC(=O)O[C@H]1CCl (stereo in doubt) [compound 7, cis-5-chloromethyl-4-methyl-4-(4′,8′,12′-trimethyltridecyl)dihydrofuran-2-one] | 1.0 ± 0.4 h | 18.7 ± 4.6 | 2.5 ± 0.5 h | 4.4 ± 0.8 h | 7.1 ± 0.5 h | 15.6 ± 4.7 | 3.3 ± 0.8 h | 3.6 ± 0.8 h | 1.2 ± 0.6 min | 4.4 ± 0.8 h | 9.6 ± 3.6 | 0.4% | 56.9% | 110 ± 41.6 µM | 237 ± 52.9 µM | – | – | – |
| CC(C)CCCC(C)CCCC(C)CCC[C@]1(C)CC(=O)O[C@H]1CBr (stereo in doubt) [compound 5, cis-5-Bromomethyl-4-methyl-4-(4′,8′,12′-trimethyltridecyl)dihydrofuran-2-one] | 0.5 ± 0.1 h | 31.6 ± 9.1 | 2.8 ± 0.5 h | 4.0 ± 0.7 h | 7.1 ± 0.4 h | 10.3 ± 3.1 | 1.4 ± 0.3 h | 2.2 ± 0.8 h | 2.4 ± 0.6 min | 4.0 ± 0.7 h | 7.1 ± 2.8 | 3.8% | 54.0% | 52 ± 13.8 µM | 261 ± 104 µM | 8.15 | 1.62 | – |
| 3,7,11,15-tetramethylhexadec-2-en-1-ol [Phytol (1), reference compound] | 0.3 ± 0.1 h | 41.4 ± 7.6 | 4.2 ± 0.4 h | 2.8 ± 0.5 h | 7.1 ± 0.2 h | – | – | 1.6 ± 0.5 h | 8.4 ± 2.4 min | 2.7 ± 0.5 h | 18.8 ± 3.6 | 18.3% | 38.4% | – | – | 1.25 | 0.91 | Number of probes before first phloem phase (Myzus persicae; listed as phytol): 27.0 (± 5.3); Number of probes before first phloem phase (Myzus persicae; listed as phytol (1)): 27.0 ± 5.3; Time from first probe to first phloem phase (Myzus persicae; listed as phytol (1)): 2.7 ± 0.6 h; IC50 (MV4-11 cells): 51.4 ± 3.6 µM; IC50 (LoVo/DX cells): 70.8 ± 3.9 µM |
| CC(C)CCCC(C)CCCC(C)CCC[C@]1(C)CC(=O)O[C@@H]1CBr (stereo in doubt) [compound 4, trans-5-Bromomethyl-4-methyl-4-(4′,8′,12′-trimethyltridecyl)dihydrofuran-2-one] | 0.9 ± 0.3 h | 20.8 ± 5.2 | 2.4 ± 0.6 h | 4.8 ± 0.8 h | 7.4 ± 0.3 h | 17.2 ± 4.8 | 2.7 ± 0.8 h | 3.0 ± 0.9 h | 1.8 ± 0.6 min | 4.8 ± 0.8 h | 8.5 ± 3.6 | 1.5% | 62.9% | 46.9 ± 11.7 µM | 306 ± 136 µM | 7.43 | 1.14 | – |
